Assay results as given in patent US9493446B2, “Orexin receptor antagonists which are [ortho bi-(hetero-)aryl]-[2-(meta bi-(hetero-)aryl)-pyrrolidin-1-yl]-methanone derivatives” (Actelion Pharmaceuticals Ltd, priority 2012, dated 2016).

Legend:
orexin-1 = orexin-1 (Homo sapiens (Human), UniProt O43613); test: Intracellular calcium measurement (FLIPR), CHO cells expressing human orexin-1 receptor, 3 nM orexin-A; type: cell-based; conditions: CHO cells expressing human orexin-1 receptor, FLIPR, 3 nM orexin-A; geometric mean if determined several times; read-out: IC50 OX1
orexin-1, sequence (O43613 whole entry): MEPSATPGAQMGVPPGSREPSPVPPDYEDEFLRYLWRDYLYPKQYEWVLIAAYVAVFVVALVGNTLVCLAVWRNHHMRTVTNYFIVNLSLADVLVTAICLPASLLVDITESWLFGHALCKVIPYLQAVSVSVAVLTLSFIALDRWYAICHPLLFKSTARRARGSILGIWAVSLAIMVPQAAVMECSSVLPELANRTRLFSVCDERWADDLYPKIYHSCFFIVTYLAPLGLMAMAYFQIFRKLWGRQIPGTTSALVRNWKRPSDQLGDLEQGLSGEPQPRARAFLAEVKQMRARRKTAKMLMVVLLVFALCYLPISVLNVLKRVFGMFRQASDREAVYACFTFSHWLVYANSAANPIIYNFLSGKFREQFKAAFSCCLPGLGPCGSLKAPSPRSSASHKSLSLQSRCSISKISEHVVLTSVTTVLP
Procedure, shortened: (§1)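 Fluo-4 AM-loaded CHO cells; antagonist preincubation 120 min, then 3 nM orexin-A (final) in HBSS/0.1% BSA/20 mM HEPES. FLIPR read at 1 s intervals; peak height vs. agonist-plus-vehicle control → IC50.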

human orexin-2 receptor = human orexin-2 receptor (Homo sapiens (Human), UniProt O43614); test: Intracellular calcium measurement (FLIPR), CHO cells expressing human orexin-2 receptor, 3 nM orexin-A; type: cell-based; conditions: CHO cells expressing human orexin-2 receptor, FLIPR, 3 nM orexin-A; geometric mean if determined several times; read-out: IC50 OX2
human orexin-2 receptor, sequence (O43614 whole entry): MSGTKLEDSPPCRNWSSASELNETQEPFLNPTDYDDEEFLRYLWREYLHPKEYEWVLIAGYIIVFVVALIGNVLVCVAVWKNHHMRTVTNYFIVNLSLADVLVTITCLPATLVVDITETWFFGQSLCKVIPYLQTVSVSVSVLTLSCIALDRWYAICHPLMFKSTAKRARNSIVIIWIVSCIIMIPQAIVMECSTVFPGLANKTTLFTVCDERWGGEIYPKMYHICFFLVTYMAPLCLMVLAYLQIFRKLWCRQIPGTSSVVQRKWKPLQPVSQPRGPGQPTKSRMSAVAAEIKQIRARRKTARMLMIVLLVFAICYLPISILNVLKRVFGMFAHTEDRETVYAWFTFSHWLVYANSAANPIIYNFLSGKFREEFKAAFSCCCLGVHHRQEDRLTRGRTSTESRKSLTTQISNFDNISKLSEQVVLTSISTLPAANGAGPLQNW
Procedure, shortened: as §1

Row | IC50 (orexin-1) | IC50 (human orexin-2 receptor) | SMILES
1 | 249 nM | 39 nM | Cc1ccc(-n2nccn2)c(C(=O)N2CCC[C@H]2c2nc(-c3ccccc3C(F)(F)F)no2)c1 [compound 29, (5-Methyl-2-[1,2,3]triazol-2-yl-phenyl)-{(S)-2-[3-(2-trifluoromethyl-phenyl)-[1,2,4]oxadiazol-5-yl]-pyrrolidin-1-yl}-methanone]
2 | 2910 nM | 259 nM | Cc1ccc(-n2nccn2)c(C(=O)N2CCC[C@H]2c2nc(-c3ccccc3O)no2)c1 [compound 31, {(S)-2-[3-(2-Hydroxy-phenyl)-[1,2,4]oxadiazol-5-yl]-pyrrolidin-1-yl}-(5-methyl-2-[1,2,3]triazol-2-yl-phenyl)-methanone]
3 | 2290 nM | 955 nM | COc1cc(-c2noc([C@@H]3CCCN3C(=O)c3cc(C)ccc3-n3nccn3)n2)ccn1 [compound 32, {(S)-2-[3-(2-Methoxy-pyridin-4-yl)-[1,2,4]oxadiazol-5-yl]-pyrrolidin-1-yl}-(5-methyl-2-[1,2,3]triazol-2-yl-phenyl)-methanone]
4 | 62 nM | 9 nM | Cc1ccc(-n2nccn2)c(C(=O)N2CCC[C@H]2c2nc(-c3ccccc3OC(F)F)no2)c1 [compound 33, {(S)-2-[3-(2-Difluoromethoxy-phenyl)-[1,2,4]oxadiazol-5-yl]-pyrrolidin-1-yl}-(5-methyl-2-[1,2,3]triazol-2-yl-phenyl)-methanone]
5 | > 5640 nM | 1060 nM | Cc1ccc(-n2nccn2)c(C(=O)N2CCC[C@H]2c2nc(-c3c(C)cncc3C)no2)c1 [compound 37, {(S)-2-[3-(3,5-Dimethyl-pyridin-4-yl)-[1,2,4]oxadiazol-5-yl]-pyrrolidin-1-yl}-(5-methyl-2-[1,2,3]triazol-2-yl-phenyl)-methanone]
6 | 23 nM | 12 nM | Cc1ccc(-n2nccn2)c(C(=O)N2CCC[C@H]2c2nc(-c3cccc4c3OCCO4)no2)c1 [compound 38, {(S)-2-[3-(2,3-Dihydro-benzo[1,4]dioxin-5-yl)-[1,2,4]oxadiazol-5-yl]-pyrrolidin-1-yl}-(5-methyl-2-[1,2,3]triazol-2-yl-phenyl)-methanone]
7 | 658 nM | 92 nM | Cc1ccc(-n2nccn2)c(C(=O)N2CCC[C@H]2c2nc(-c3cccc4[nH]ccc34)no2)c1 [compound 39, {(S)-2-[3-(1H-Indol-4-yl)-[1,2,4]oxadiazol-5-yl]-pyrrolidin-1-yl}-(5-methyl-2-[1,2,3]triazol-2-yl-phenyl)-methanone]
8 | 22 nM | 4 nM | CCOc1ccccc1-c1noc([C@@H]2CCCN2C(=O)c2cc(C)ccc2-n2nccn2)n1 [compound 40, {(S)-2-[3-(2-Ethoxy-phenyl)-[1,2,4]oxadiazol-5-yl]-pyrrolidin-1-yl}-(5-methyl-2-[1,2,3]triazol-2-yl-phenyl)-methanone]
9 | 22 nM | 7 nM | CCOc1ncccc1-c1noc([C@@H]2CCCN2C(=O)c2cc(C)ccc2-n2nccn2)n1 [compound 41, {(S)-2-[3-(2-Ethoxy-pyridin-3-yl)-[1,2,4]oxadiazol-5-yl]-pyrrolidin-1-yl}-(5-methyl-2-[1,2,3]triazol-2-yl-phenyl)-methanone]
10 | 112 nM | 108 nM | COc1ccc2[nH]cc(-c3noc([C@@H]4CCCN4C(=O)c4cc(C)ccc4-n4nccn4)n3)c2c1 [compound 42, {(S)-2-[3-(5-Methoxy-1H-indol-3-yl)-[1,2,4]oxadiazol-5-yl]-pyrrolidin-1-yl}-(5-methyl-2-[1,2,3]triazol-2-yl-phenyl)-methanone]
11 | 284 nM | 23 nM | Cc1ccc(-n2nccn2)c(C(=O)N2CCC[C@H]2c2nc(-c3cccc(OC(F)F)c3)no2)c1 [compound 43, {(S)-2-[3-(3-Difluoromethoxy-phenyl)-[1,2,4]oxadiazol-5-yl]-pyrrolidin-1-yl}-(5-methyl-2-[1,2,3]triazol-2-yl-phenyl)-methanone]
12 | 110 nM | 14 nM | COCc1ccccc1-c1noc([C@@H]2CCCN2C(=O)c2cc(C)ccc2-n2nccn2)n1 [compound 44, {(S)-2-[3-(2-Methoxymethyl-phenyl)-[1,2,4]oxadiazol-5-yl]-pyrrolidin-1-yl}-(5-methyl-2-[1,2,3]triazol-2-yl-phenyl)-methanone]
13 | 4 nM | 9 nM | Cc1ccc(-n2nccn2)c(C(=O)N2CCC[C@H]2c2nc(-c3cccc4cc[nH]c34)no2)c1 [compound 46, {(S)-2-[3-(1H-Indol-7-yl)-[1,2,4]oxadiazol-5-yl]-pyrrolidin-1-yl}-(5-methyl-2-[1,2,3]triazol-2-yl-phenyl)-methanone]
14 | 316 nM | 90 nM | COc1cc(OC)cc(-c2noc([C@@H]3CCCN3C(=O)c3cc(C)ccc3-n3nccn3)n2)c1 [compound 47, {(S)-2-[3-(3,5-Dimethoxy-phenyl)-[1,2,4]oxadiazol-5-yl]-pyrrolidin-1-yl}-(5-methyl-2-[1,2,3]triazol-2-yl-phenyl)-methanone]
15 | 89 nM | 233 nM | Cc1ccc(-n2nccn2)c(C(=O)N2CCC[C@H]2c2nc(-c3cccnc3OC3CCCC3)no2)c1 [compound 49, {(S)-2-[3-(2-Cyclopentyloxy-pyridin-3-yl)-[1,2,4]oxadiazol-5-yl]-pyrrolidin-1-yl}-(5-methyl-2-[1,2,3]triazol-2-yl-phenyl)-methanone]
16 | 131 nM | 75 nM | Cc1ccc(-n2nccn2)c(C(=O)N2CCC[C@H]2c2nc(-c3c[nH]c4ncccc34)no2)c1 [compound 50, (5-Methyl-2-[1,2,3]triazol-2-yl-phenyl)-{(S)-2-[3-(1H-pyrrolo[2,3-b]pyridin-3-yl)-[1,2,4]oxadiazol-5-yl]-pyrrolidin-1-yl}-methanone]
17 | 15 nM | 11 nM | Cc1ccc(-n2nccn2)c(C(=O)N2CCC[C@H]2c2nc(-c3cn(C)c4ncccc34)no2)c1 [compound 51, {(S)-2-[3-(1-Methyl-1H-pyrrolo[2,3-b]pyridin-3-yl)-[1,2,4]oxadiazol-5-yl]-pyrrolidin-1-yl}-(5-methyl-2-[1,2,3]triazol-2-yl-phenyl)-methanone]
18 | 182 nM | 25 nM | Cc1ccc(-n2nccn2)c(C(=O)N2CCC[C@H]2c2nc(-c3cccc4c3OCO4)no2)c1 [compound 52, [(S)-2-(3-Benzo[1,3]dioxol-4-yl-[1,2,4]oxadiazol-5-yl)-pyrrolidin-1-yl]-(5-methyl-2-[1,2,3]triazol-2-yl-phenyl)-methanone]
19 | 315 nM | 97 nM | CCc1ncccc1-c1noc([C@@H]2CCCN2C(=O)c2cc(C)ccc2-n2nccn2)n1 [compound 53, {(S)-2-[3-(2-Ethyl-pyridin-3-yl)-[1,2,4]oxadiazol-5-yl]-pyrrolidin-1-yl}-(5-methyl-2-[1,2,3]triazol-2-yl-phenyl)-methanone]
20 | 216 nM | 46 nM | Cc1ccc(-n2nccn2)c(C(=O)N2CCC[C@H]2c2nc(-c3cccc(C(F)(F)F)c3C)no2)c1 [compound 54, (5-Methyl-2-[1,2,3]triazol-2-yl-phenyl)-{(S)-2-[3-(2-methyl-3-trifluoromethyl-phenyl)-[1,2,4]oxadiazol-5-yl]-pyrrolidin-1-yl}-methanone]
21 | 241 nM | 41 nM | CCOc1cnccc1-c1noc([C@@H]2CCCN2C(=O)c2cc(C)ccc2-n2nccn2)n1 [compound 55, {(S)-2-[3-(3-Ethoxy-pyridin-4-yl)-[1,2,4]oxadiazol-5-yl]-pyrrolidin-1-yl}-(5-methyl-2-[1,2,3]triazol-2-yl-phenyl)-methanone]
22 | 16 nM | 7 nM | CCOc1c(F)cccc1-c1noc([C@@H]2CCCN2C(=O)c2cc(C)ccc2-n2nccn2)n1 [compound 56, {(S)-2-[3-(2-Ethoxy-3-fluoro-phenyl)-[1,2,4]oxadiazol-5-yl]-pyrrolidin-1-yl}-(5-methyl-2-[1,2,3]triazol-2-yl-phenyl)-methanone]
23 | 7 nM | 4 nM | Cc1ccc(-n2nccn2)c(C(=O)N2CCC[C@H]2c2nc(-c3cn(C)c4ccccc34)no2)c1 [compound 57, {(S)-2-[3-(1-Methyl-1H-indol-3-yl)-[1,2,4]oxadiazol-5-yl]-pyrrolidin-1-yl}-(5-methyl-2-[1,2,3]triazol-2-yl-phenyl)-methanone]
24 | > 5040 nM | 536 nM | Cc1ccc(-n2nccn2)c(C(=O)N2CCC[C@H]2c2nc(-c3cnccc3C)no2)c1 [compound 58, {(S)-2-[3-(4-Methyl-pyridin-3-yl)-[1,2,4]oxadiazol-5-yl]-pyrrolidin-1-yl}-(5-methyl-2-[1,2,3]triazol-2-yl-phenyl)-methanone]
25 | 1220 nM | 47 nM | COc1cccc(-c2noc([C@@H]3CCCN3C(=O)c3cc(C)ccc3-n3nccn3)n2)c1OC [compound 59, {(S)-2-[3-(2,3-Dimethoxy-phenyl)-[1,2,4]oxadiazol-5-yl]-pyrrolidin-1-yl}-(5-methyl-2-[1,2,3]triazol-2-yl-phenyl)-methanone]
26 | > 1420 nM | 419 nM | Cc1ccc(-n2nccn2)c(C(=O)N2CCC[C@H]2c2nc(-c3cnn(C)c3)no2)c1 [compound 60, {(S)-2-[3-(1-Methyl-1H-pyrazol-4-yl)-[1,2,4]oxadiazol-5-yl]-pyrrolidin-1-yl}-(5-methyl-2-[1,2,3]triazol-2-yl-phenyl)-methanone]

Row | SMILES | IC50 (orexin-1) | IC50 (human orexin-2 receptor)
27 | CCCOc1ccccc1-c1noc([C@@H]2CCCN2C(=O)c2cc(C)ccc2-n2nccn2)n1 [compound 45] | 112 nM | 125 nM
28 | Cc1ccc(-n2nccn2)c(C(=O)N2CCC[C@H]2c2nc(-c3cccnc3OC3CCC3)no2)c1 [compound 48, {(S)-2-[3-(2-Cyclobutoxy-pyridin-3-yl)-[1,2,4]oxadiazol-5-yl]-pyrrolidin-1-yl}-(5-methyl-2-[1,2,3]triazol-2-yl-phenyl)-methanone] | 45 nM | 58 nM
